Measurements: patent publication US20080015214A1 (priority 2005, published 2008)

What was measured:
Assay in all cases: biochemical
Assay type in all cases: binding
mu (μ) opioid receptor = mu (μ) opioid receptor (Homo sapiens, UniProt P35372)
[1] = molecular target: kappa (κ) opioid receptor (Homo sapiens, UniProt P41145); details: 2C2 cell line membrane, U69593-H3 ligand
[2] = molecular target: human nociceptin receptor (ORL-1) (Homo sapiens, UniProt P41146)
Chain of human nociceptin receptor (ORL-1) (P41146 whole entry): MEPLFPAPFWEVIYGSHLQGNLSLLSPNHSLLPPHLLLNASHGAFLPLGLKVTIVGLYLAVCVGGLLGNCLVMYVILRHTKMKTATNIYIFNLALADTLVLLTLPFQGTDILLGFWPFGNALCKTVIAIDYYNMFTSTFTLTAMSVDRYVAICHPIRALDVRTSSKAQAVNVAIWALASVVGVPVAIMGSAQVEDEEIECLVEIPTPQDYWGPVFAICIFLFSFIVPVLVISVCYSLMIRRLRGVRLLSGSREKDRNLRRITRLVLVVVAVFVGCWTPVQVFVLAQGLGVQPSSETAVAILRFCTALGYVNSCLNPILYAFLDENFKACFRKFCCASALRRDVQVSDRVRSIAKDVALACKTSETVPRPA

Chain of mu (μ) opioid receptor (P35372 whole entry): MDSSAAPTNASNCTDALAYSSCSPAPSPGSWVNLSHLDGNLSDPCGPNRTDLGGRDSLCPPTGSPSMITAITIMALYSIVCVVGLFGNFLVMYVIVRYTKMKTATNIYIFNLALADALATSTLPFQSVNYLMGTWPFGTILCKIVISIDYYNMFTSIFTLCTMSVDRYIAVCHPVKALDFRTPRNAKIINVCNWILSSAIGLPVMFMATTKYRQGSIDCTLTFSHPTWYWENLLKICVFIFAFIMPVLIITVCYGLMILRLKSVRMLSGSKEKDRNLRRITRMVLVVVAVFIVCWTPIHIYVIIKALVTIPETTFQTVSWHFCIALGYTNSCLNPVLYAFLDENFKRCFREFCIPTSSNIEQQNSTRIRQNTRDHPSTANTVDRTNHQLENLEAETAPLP
Chain of kappa (κ) opioid receptor (P41145 whole entry): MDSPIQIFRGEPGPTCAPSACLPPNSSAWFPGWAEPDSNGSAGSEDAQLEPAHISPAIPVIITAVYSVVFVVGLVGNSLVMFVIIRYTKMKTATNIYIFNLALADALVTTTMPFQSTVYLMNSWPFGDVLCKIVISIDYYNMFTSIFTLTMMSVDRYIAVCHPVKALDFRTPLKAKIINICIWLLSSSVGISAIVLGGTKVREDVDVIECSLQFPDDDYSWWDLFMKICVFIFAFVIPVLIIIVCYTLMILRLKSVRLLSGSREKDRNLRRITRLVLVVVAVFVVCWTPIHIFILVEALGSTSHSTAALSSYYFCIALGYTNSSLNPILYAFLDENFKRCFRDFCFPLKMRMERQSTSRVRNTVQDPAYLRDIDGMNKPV

IC50 (mu (μ) opioid receptor)	IC50 [2]	Compound	IC50 [1]
339 nM	–	c1ccc(Oc2ccc(CN3CCC(c4c[nH]c5ncccc45)CC3)cc2)cc1 [Cpd 55, 3-[1-(4-phenoxy-benzyl)-piperidin-4-yl]-1H-pyrrolo[2,3-b]pyridine]	–
–	–	c1cc2c3c(cccc3c1)C(N1CCC(c3cn(C4Cc5cccc6cccc4c56)c4ncccc34)CC1)C2 (stereo not drawn) [Cpd 35, 1-acenaphthen-1-yl-3-(1-acenaphthen-1-yl-piperidin-4-yl)-1H-pyrrolo[2,3-b]pyridine]	840 nM
345 nM	821 nM	c1ccc2c(CN3CCC(c4c[nH]c5ncccc45)CC3)cccc2c1 [Cpd 33, 3-(1-naphthalen-1-ylmethyl-piperidin-4-yl)-1H-pyrrolo[2,3-b]pyridine]	–
–	3500 nM	c1cnc2[nH]cc(C3CCN(CC4CCCCC4)CC3)c2c1 [Cpd 52, 3-(1-cyclohexylmethyl-piperidin-4-yl)-1H-pyrrolo [2,3-b]pyridine]	–
–	–	OC1CN(C2Cc3cccc4cccc2c34)CCC1c1c[nH]c2ncccc12 (mixture of isomers) [Cpd 40, 1-acenaphthen-1-yl-4-(1 H-pyrrolo[2,3-b]pyridin-3-yl)-piperidin-3-ol]	4300 nM
